ChEMBL document CHEMBL1909046, “DrugMatrix in vitro pharmacology data”

Legend:
[1] = molecular target: 5-hydroxytryptamine receptor 6 (Homo sapiens, UniProt P50406); assay type: cell membranes, HeLa, Membrane; conditions: for Ki: read-out: Ki
[2] = molecular target: C-C chemokine receptor type 2 (Homo sapiens, UniProt P41597); assay type: cell membranes, Membrane; conditions: cho-k1
[3] = molecular target: T1, Cholecystokinin receptor type A (Homo sapiens, UniProt P32238); assay type: cell membranes, Membrane; conditions: 1321-n1
T1 sequence (P32238 whole entry): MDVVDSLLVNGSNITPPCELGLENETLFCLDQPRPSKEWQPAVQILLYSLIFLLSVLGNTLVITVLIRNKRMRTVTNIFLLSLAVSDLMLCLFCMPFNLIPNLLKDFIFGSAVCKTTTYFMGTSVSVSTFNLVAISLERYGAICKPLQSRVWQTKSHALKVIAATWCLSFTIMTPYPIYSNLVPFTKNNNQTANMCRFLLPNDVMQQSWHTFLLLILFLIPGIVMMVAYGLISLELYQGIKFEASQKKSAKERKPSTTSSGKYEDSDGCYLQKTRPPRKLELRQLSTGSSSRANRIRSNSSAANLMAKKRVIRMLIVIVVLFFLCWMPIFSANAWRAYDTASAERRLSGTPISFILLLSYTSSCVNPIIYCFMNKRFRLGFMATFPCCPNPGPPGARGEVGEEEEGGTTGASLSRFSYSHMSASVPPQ

[4] = molecular target: Prostaglandin G/H synthase 1 (Homo sapiens, UniProt P23219); experiment: biochemical; assay type: tissue-based, Platelet; conditions: platelet;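 also: inhibition of COX-1 enzyme activity, with arachidonic acid supplied as substrate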
Prostaglandin G/H synthase 1, sequence (P23219 whole entry): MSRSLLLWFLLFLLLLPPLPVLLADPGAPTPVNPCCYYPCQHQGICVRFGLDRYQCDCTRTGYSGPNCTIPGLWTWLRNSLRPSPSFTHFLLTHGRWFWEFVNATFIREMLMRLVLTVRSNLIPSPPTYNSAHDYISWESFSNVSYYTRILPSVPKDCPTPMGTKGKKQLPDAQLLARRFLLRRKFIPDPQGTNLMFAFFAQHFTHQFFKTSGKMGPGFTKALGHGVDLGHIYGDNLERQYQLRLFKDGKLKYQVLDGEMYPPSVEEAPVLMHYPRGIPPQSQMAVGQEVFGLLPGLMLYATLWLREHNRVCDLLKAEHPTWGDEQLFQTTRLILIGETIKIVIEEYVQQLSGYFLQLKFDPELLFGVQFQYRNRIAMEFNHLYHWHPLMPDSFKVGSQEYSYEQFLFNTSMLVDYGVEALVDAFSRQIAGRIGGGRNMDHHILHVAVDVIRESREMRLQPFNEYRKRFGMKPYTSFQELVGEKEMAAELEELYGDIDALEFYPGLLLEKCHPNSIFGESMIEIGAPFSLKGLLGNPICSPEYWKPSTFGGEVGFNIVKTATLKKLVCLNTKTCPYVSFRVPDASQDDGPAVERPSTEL

Insulin receptor = Insulin receptor (Rattus norvegicus, UniProt P15127); assay type: cell membranes, Wistar, Liver, Membrane
Insulin receptor, sequence (P15127 27-759 limits assumed): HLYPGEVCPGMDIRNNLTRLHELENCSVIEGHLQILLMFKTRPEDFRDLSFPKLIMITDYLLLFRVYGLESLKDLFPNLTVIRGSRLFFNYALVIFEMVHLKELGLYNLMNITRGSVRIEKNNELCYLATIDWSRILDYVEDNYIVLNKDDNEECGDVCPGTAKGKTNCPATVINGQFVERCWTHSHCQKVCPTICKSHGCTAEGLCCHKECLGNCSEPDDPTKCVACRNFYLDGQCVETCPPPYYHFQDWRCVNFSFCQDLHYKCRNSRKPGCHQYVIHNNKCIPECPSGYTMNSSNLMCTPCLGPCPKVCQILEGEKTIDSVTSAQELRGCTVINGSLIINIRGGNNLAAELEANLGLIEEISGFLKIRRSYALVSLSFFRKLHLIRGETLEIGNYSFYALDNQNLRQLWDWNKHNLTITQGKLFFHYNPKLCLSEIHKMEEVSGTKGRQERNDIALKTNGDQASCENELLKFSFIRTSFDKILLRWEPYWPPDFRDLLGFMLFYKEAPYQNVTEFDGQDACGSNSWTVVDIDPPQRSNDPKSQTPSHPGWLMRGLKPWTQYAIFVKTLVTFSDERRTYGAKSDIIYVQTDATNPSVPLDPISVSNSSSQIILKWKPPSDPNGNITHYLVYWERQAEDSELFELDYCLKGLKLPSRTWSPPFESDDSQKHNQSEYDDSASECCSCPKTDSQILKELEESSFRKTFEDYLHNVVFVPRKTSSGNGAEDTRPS
Insulin receptor, sequence (P15127 764-1383 limits assumed): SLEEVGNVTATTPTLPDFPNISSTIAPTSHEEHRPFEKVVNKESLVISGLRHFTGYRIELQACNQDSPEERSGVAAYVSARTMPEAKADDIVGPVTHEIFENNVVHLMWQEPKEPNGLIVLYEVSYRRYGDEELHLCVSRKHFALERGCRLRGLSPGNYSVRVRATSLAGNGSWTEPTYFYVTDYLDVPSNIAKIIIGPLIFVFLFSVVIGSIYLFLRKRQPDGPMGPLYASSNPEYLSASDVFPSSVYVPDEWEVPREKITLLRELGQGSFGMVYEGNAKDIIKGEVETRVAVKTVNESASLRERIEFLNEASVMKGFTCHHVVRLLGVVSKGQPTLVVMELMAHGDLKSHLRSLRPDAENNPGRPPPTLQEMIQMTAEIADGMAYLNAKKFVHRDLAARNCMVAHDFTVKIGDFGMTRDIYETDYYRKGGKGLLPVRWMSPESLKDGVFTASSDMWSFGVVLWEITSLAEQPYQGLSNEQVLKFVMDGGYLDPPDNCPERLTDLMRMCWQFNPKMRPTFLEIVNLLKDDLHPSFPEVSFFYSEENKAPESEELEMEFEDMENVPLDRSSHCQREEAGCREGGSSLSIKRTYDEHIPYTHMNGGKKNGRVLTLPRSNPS

Neutrophil elastase = molecular target: T2, Neutrophil elastase (Homo sapiens, UniProt P08246); assay type: tissue-based;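 also: inhibition of neutrophil elastase enzyme activity, measured with a p-nitroanilide-linked peptide substrate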
T2 sequence (P08246 whole entry): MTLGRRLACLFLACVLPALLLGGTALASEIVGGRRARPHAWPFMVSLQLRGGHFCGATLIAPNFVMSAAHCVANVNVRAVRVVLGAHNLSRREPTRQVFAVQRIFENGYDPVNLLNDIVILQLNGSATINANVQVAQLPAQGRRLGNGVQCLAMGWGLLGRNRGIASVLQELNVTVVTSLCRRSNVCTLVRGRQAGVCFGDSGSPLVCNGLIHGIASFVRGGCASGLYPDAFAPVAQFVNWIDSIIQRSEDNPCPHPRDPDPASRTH

[5] = molecular target: Mitogen-activated protein kinase 14 (Homo sapiens, UniProt Q16539); parameters: species or system Escherichia coli;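 also: inhibition of p38alpha enzyme activity in a biochemical kinase assay, with myelin basic protein serving as substrate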
Mitogen-activated protein kinase 14, sequence (Q16539 whole entry): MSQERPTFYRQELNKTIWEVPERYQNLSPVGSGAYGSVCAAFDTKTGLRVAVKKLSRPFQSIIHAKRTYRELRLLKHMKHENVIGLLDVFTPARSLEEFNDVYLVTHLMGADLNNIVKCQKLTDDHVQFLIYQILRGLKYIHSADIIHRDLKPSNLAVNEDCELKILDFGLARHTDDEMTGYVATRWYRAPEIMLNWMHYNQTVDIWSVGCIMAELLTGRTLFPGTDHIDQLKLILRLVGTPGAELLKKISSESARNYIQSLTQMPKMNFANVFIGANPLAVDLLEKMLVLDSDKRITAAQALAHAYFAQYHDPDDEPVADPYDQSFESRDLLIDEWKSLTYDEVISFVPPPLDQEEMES

Glucocorticoid receptor = molecular target: T3, Glucocorticoid receptor (Homo sapiens, UniProt P04150); conditions: hela s3
T3 sequence (P04150 whole entry): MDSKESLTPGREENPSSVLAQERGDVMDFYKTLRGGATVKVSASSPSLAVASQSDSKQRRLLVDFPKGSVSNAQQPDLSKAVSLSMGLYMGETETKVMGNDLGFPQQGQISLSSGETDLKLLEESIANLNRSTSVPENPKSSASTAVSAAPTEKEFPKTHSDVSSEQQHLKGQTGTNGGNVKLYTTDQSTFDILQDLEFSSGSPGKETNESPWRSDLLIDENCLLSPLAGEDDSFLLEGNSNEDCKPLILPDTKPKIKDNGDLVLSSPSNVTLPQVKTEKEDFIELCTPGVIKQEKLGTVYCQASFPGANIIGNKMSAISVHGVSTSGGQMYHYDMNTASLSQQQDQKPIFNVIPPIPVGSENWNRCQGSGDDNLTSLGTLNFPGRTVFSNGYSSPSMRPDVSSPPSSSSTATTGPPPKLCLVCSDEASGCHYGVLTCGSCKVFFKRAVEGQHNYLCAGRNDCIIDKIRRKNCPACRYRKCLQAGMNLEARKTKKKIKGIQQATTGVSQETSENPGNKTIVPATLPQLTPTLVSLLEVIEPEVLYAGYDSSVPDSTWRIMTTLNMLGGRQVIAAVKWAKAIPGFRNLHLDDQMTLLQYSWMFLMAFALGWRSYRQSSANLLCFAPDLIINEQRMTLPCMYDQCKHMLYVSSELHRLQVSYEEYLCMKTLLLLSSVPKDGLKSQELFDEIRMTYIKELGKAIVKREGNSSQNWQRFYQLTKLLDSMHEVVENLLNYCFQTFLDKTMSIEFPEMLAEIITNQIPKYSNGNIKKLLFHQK
Also: in other assays of this panel Not Active means under 50% inhibition at 10 µM.

C-C chemokine receptor type 2, sequence (P41597 whole entry): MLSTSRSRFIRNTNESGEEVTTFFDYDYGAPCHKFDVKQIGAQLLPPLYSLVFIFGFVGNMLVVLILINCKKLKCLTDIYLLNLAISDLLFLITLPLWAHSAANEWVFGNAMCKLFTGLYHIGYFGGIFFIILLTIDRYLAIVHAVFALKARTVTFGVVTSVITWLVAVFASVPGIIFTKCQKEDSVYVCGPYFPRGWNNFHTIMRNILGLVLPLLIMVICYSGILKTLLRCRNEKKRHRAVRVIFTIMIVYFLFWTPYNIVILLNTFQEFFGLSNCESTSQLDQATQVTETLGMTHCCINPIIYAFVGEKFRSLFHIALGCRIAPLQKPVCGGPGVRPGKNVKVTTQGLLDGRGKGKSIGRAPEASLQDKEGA
5-hydroxytryptamine receptor 6, sequence (P50406 whole entry): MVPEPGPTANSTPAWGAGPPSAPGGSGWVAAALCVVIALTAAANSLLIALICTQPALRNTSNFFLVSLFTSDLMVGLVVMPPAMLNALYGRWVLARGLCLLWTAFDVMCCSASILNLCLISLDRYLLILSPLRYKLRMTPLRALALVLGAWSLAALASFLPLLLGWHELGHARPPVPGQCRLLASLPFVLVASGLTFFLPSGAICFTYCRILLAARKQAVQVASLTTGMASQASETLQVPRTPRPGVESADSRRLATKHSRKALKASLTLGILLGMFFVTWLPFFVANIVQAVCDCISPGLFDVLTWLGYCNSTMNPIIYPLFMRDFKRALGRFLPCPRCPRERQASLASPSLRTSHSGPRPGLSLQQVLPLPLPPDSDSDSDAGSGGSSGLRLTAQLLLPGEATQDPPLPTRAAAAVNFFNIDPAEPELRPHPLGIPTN

Row | SMILES | IC50 ([1]; hela) | IC50 [2] | IC50 [3] | IC50 [4] | IC50 (Insulin receptor) | IC50 (Neutrophil elastase) | IC50 [5] | IC50 (Glucocorticoid receptor) | IC50 ([1]; read-out: IC50) [nM] | Ki [1] [nM]
1 | O=c1[nH]c(=O)n([C@H]2C[C@H](O)[C@@H](CO)O2)cc1F [FLOXURIDINE] | Not Active | Not Active | Not Active | Not Active | Not Active | Not Active | Not Active | Not Active | – | –
2 | COC(=O)Nc1nc2cc(C(=O)c3ccc(F)cc3)ccc2[nH]1 [FLUBENDAZOLE] | Not Active | Not Active | Not Active | Not Active | Not Active | Not Active | Not Active | Not Active | – | –
3 | O=C(O)P(=O)(O)O [FOSCARNET] | Not Active | Not Active | Not Active | Not Active | Not Active | Not Active | Not Active | Not Active | – | –
4 | O=c1c(-c2ccc(O)cc2)coc2cc(O)cc(O)c12 [GENISTEIN] | Not Active | Not Active | Not Active | Not Active | Not Active | Not Active | Not Active | Not Active | – | –
5 | CCC1=C(C)CN(C(=O)NCCc2ccc(S(=O)(=O)NC(=O)N[C@H]3CC[C@H](C)CC3)cc2)C1=O [GLIMEPIRIDE] | Not Active | Not Active | Not Active | Not Active | Not Active | Not Active | Not Active | Not Active | – | –
6 | Nc1cc(-c2ccncc2)c[nH]c1=O [INAMRINONE] | Not Active | Not Active | Not Active | Not Active | Not Active | Not Active | Not Active | Not Active | – | –
7 | CN1CCC(=C2c3ccccc3CC(=O)c3sccc32)CC1 [KETOTIFEN] | – | Not Active | Not Active | Not Active | Not Active | Not Active | Not Active | Not Active | 1140 | 530
8 | N[C@@H](Cn1ccc(=O)c(O)c1)C(=O)O [L-MIMOSINE] | Not Active | Not Active | Not Active | Not Active | Not Active | Not Active | Not Active | Not Active | – | –
9 | C[N+](C)(C)C[C@H](O)CC(=O)[O-] [LEVOCARNITINE] | Not Active | Not Active | Not Active | Not Active | Not Active | Not Active | Not Active | Not Active | – | –
10 | CCn1cc(C(=O)O)c(=O)c2cc(F)c(N3CCNC(C)C3)c(F)c21 (stereo not drawn) [LOMEFLOXACIN] | Not Active | Not Active | Not Active | Not Active | Not Active | Not Active | Not Active | Not Active | – | –
11 | CN1CCCC(CN2c3ccccc3Sc3ccccc32)C1 (stereo not drawn) [MEPAZINE] | – | Not Active | Not Active | Not Active | Not Active | Not Active | Not Active | Not Active | 1840 | 853
12 | Cc1cccc(C)c1NC(=O)C1CCCCN1C (stereo not drawn) [MEPIVACAINE] | Not Active | Not Active | Not Active | Not Active | Not Active | Not Active | Not Active | Not Active | – | –
